Data published in patent US20250144077A1, “DOSAGE REGIMEN FOR THROMBOPOIETIN RECEPTOR AGONIST” (JIANGSU HENGRUI PHARMACEUTICALS CO., LTD., priority 2022, published 2025).
Where two headings read alike, the source gives them in different places.

How the values were obtained:
[1] = Single-dose, open-label pharmacokinetics of herombopag in subjects with normal liver function, mild and moderate hepatic impairments; format: in vivo, human; settings: for AUC0-t GLSM Ratio / AUC0-∞ GLSM Ratio / Cmax GLSM Ratio: ANOVA
Procedure: Example 1: Study of Pharmacokinetics and Safety of Trial Drug in Subjects with Mild Hepatic Impairments (Child-Pugh: Grade A), Moderate Hepatic Impairments (Child-Pugh: Grade B), and Normal Liver Function
Trial drug: tablets of herombopag diethanolamine salt, produced and provided by Jiangsu Hengrui, strengths: 2.5 mg/tablet and 5 mg/tablet.
This study is a single-dose, open-label trial designed to evaluate the pharmacokinetics of herombopag in subjects with normal liver function, mild hepatic impairments, and moderate hepatic impairments.
The severity of the hepatic functional impairments in the subjects was assessed using the Child-Pugh score (mild: grade A, a score of 5 or 6; moderate: grade B, a score of 7-9).
(§1) All the subjects in each group underwent PK, PD, and safety index collection following the administration of the study drug on D1 according to the trial process chart, and comparative analysis was then performed between groups.
PK blood sampling time points: Venous blood samples of about 4 mL were collected from each subject within the 1 h prior to administration and at 0.5, 1, 2, 4, 6, 7, 8, 10, 12, 24, 48, 72, 96, and 120 h after administration. Blood sampling time windows: within the 60 min prior to administration; ±2 min for the 0.5 h-2 h after administration; ±5 min for the 4 h-12 h; ±15 min for the 24 h-120 h after administration.
(§2) Prior to the day-1 administration (D-1), the subjects were required to fast for 10 h or more, though water intake was not prohibited. The following morning (D1), the subjects orally took, on an empty stomach, a 7.5 mg dose of herombopag diethanolamine tablets (comprised of one 2.5 mg tablet and one 5 mg tablet) with about 240 mL of warm water. Water intake was prohibited 1 h before and after the administration. The subjects had lunch about 4 h after the administration and had dinner about 10 h after the administration. The subjects were advised to remain seated within the 2 h after the administration and to avoid strenuous exercise and prolonged bed rest.
Pharmacokinetic parameters of herombopag, including Tmax, Cmax, AUC0-t, AUC0-∞, t1/2, V/F, and CL/F, were calculated according to the actual sampling time points using a non-compartmental model (NCA) on Phoenix WinNonlin 8.1.

[2] = tested on: plasma protein; test: Plasma protein binding rate of herombopag in subjects with hepatic impairments; format: in vitro ADME, human
[3] = tested on: platelet counts; test: PD: platelet counts after administration compared to baseline; format: in vivo, human; settings: all the groups; single 7.5 mg oral dose
Procedure: as §1

[4] = Safety and adverse events after single 7.5 mg oral dose (CTCAE5.0 grading); format: in vivo, human
Procedure: as §1, §2
In this study, a total of 24 subjects were included, and all of them were included in a safety analysis set.
In this study, all drug-related AEs were graded according to CTCAE5.0. […] The adverse reactions mainly occurred in the hepatic impairment groups, and the incidence of adverse reactions in the moderate hepatic impairment group was relatively high, which may be attributed to the fact that these subjects had pre-existing liver diseases of varying degrees of severity and most of them already had abnormal baseline laboratory test results. These subjects recovered from all the adverse events without intervention.

[5] = Moderate vs. Normal (moderate/normal)
[6] = mild hepatic impairments compared with normal liver function
[7] = moderate hepatic impairments compared with normal liver function
[8] = single 7.5 mg oral dose, fasted, mild hepatic impairment (n = 8), GeoMean (% CVb)
[9] = single 7.5 mg oral dose, fasted, moderate hepatic impairment (n = 8), GeoMean (% CVb)
[10] = single 7.5 mg oral dose, fasted, normal liver function group (n = 8), GeoMean (% CVb)
[11] = moderate hepatic impairment group, 5 subjects

## CC1=NN(c2ccc3c(c2)CCCC3)C(=O)/C1=N\Nc1cccc(-c2ccc(C(=O)O)o2)c1O [herombopag, (Z)-5-(2-hydroxy-3-(2-(3-methyl-5-oxo-1-(5,6,7,8-tetrahydronaphthalen-2-yl)-1H-pyrazol-4(5H)-ylidene)hydrazino)phenyl)furan-2-carboxylic acid]
[1]; Mild vs. Normal (mild/normal)
  AUC0-t GLSM Ratio: 121.73%
  AUC0-∞ GLSM Ratio: 120.16%
  Cmax GLSM Ratio: 170.39%
[1]; [5]
  AUC0-t GLSM Ratio: 171.21%
  AUC0-∞ GLSM Ratio: 173.06%
  Cmax GLSM Ratio: 204.72%
[1]; human, in vivo
  median time to peak, hepatic impairment groups versus normal liver function group: smaller median time to peak
[1]; human, plasma, oral, 7.5 mg, geometric least squares mean, mild hepatic impairment group, n 8, read-out: AUC0-t GLSM
  AUC(0-t): 1060 ng·h/mL
[1]; human, plasma, oral, 7.5 mg, geometric least squares mean, mild hepatic impairment group, n 8, read-out: AUC0-∞ GLSM
  AUC(0-inf): 1120 ng·h/mL
[1]; human, plasma, oral, 7.5 mg, geometric least squares mean, mild hepatic impairment group, n 8, read-out: Cmax GLSM
  Cmax: 62.6 ng/mL
[1]; human, plasma, oral, 7.5 mg, geometric least squares mean, moderate hepatic impairment group, n 8, read-out: AUC0-t GLSM
  AUC(0-t): 1500 ng·h/mL
[1]; human, plasma, oral, 7.5 mg, geometric least squares mean, moderate hepatic impairment group, n 8, read-out: AUC0-∞ GLSM
  AUC(0-inf): 1610 ng·h/mL
[1]; human, plasma, oral, 7.5 mg, geometric least squares mean, moderate hepatic impairment group, n 8, read-out: Cmax GLSM
  Cmax: 75.3 ng/mL
[1]; human, plasma, oral, 7.5 mg, geometric least squares mean, normal liver function group, n 8, read-out: AUC0-t GLSM
  AUC(0-t): 874 ng·h/mL
[1]; human, plasma, oral, 7.5 mg, geometric least squares mean, normal liver function group, n 8, read-out: AUC0-∞ GLSM
  AUC(0-inf): 929 ng·h/mL
[1]; human, plasma, oral, 7.5 mg, geometric least squares mean, normal liver function group, n 8, read-out: Cmax GLSM
  Cmax: 36.8 ng/mL
[1]; human, plasma, po, 7.5 mg, single 7.5 mg oral dose, empty stomach, mild hepatic impairments (Child-Pugh: grade A), read-out: arithmetic mean of t1/2 (converted)
  half-life: 32.3 h
[1]; human, plasma, po, 7.5 mg, single 7.5 mg oral dose, empty stomach, mild hepatic impairments (Child-Pugh: grade A), read-out: geometric mean of AUC0-t
  AUC(0-t): 1060 ng·h/mL
[1]; human, plasma, po, 7.5 mg, single 7.5 mg oral dose, empty stomach, mild hepatic impairments (Child-Pugh: grade A), read-out: geometric mean of AUC0-∞
  AUC(0-inf): 1120 ng·h/mL
[1]; human, plasma, po, 7.5 mg, single 7.5 mg oral dose, empty stomach, mild hepatic impairments (Child-Pugh: grade A), read-out: median of Tmax
  Tmax: 2 h
[1]; human, plasma, po, 7.5 mg, single 7.5 mg oral dose, empty stomach, moderate hepatic impairments (Child-Pugh: grade B), read-out: arithmetic mean of t1/2 (converted)
  half-life: 36.3 h
[1]; human, plasma, po, 7.5 mg, single 7.5 mg oral dose, empty stomach, moderate hepatic impairments (Child-Pugh: grade B), read-out: geometric mean of AUC0-t
  AUC(0-t): 1580 ng·h/mL
[1]; human, plasma, po, 7.5 mg, single 7.5 mg oral dose, empty stomach, moderate hepatic impairments (Child-Pugh: grade B), read-out: geometric mean of AUC0-∞
  AUC(0-inf): 1660 ng·h/mL
[1]; human, plasma, po, 7.5 mg, single 7.5 mg oral dose, empty stomach, moderate hepatic impairments (Child-Pugh: grade B), read-out: median of Tmax
  Tmax: 2 h
[1]; human, plasma, po, 7.5 mg, single 7.5 mg oral dose, empty stomach, normal liver function, read-out: arithmetic mean of t1/2 (converted)
  half-life: 34.6 h
[1]; human, plasma, po, 7.5 mg, single 7.5 mg oral dose, empty stomach, normal liver function, read-out: geometric mean of AUC0-t
  AUC(0-t): 874 ng·h/mL
[1]; human, plasma, po, 7.5 mg, single 7.5 mg oral dose, empty stomach, normal liver function, read-out: geometric mean of AUC0-∞
  AUC(0-inf): 929 ng·h/mL
[1]; human, plasma, po, 7.5 mg, single 7.5 mg oral dose, empty stomach, normal liver function, read-out: median of Tmax
  Tmax: 8 h
[1]; human, plasma, po, 7.5 mg, single 7.5 mg oral dose, fasted, mild hepatic impairment (n = 8), GeoMean (% CVb), read-out: AUC0-t
  AUC(0-t): 1060 ng·h/mL
[1]; human, plasma, po, 7.5 mg, single 7.5 mg oral dose, fasted, mild hepatic impairment (n = 8), GeoMean (% CVb), read-out: AUC0-∞
  AUC(0-inf): 1120 ng·h/mL
[1]; human, plasma, po, 7.5 mg, single 7.5 mg oral dose, fasted, mild hepatic impairment (n = 8), GeoMean (% CVb), read-out: Cmax
  Cmax: 62.4 ng/mL
[1]; human, plasma, po, 7.5 mg, single 7.5 mg oral dose, fasted, mild hepatic impairment (n = 8), Mean ± SD, read-out: t1/2 (converted)
  half-life: 32.2 ± 7.28 h
[1]; human, plasma, po, 7.5 mg, single 7.5 mg oral dose, fasted, mild hepatic impairment (n = 8), Median (Min-Max), read-out: Tmax
  Tmax: 2 h
[1]; human, plasma, po, 7.5 mg, single 7.5 mg oral dose, fasted, moderate hepatic impairment (n = 8), GeoMean (% CVb), read-out: AUC0-t
  AUC(0-t): 1580 ng·h/mL
[1]; human, plasma, po, 7.5 mg, single 7.5 mg oral dose, fasted, moderate hepatic impairment (n = 8), GeoMean (% CVb), read-out: AUC0-∞
  AUC(0-inf): 1660 ng·h/mL
[1]; human, plasma, po, 7.5 mg, single 7.5 mg oral dose, fasted, moderate hepatic impairment (n = 8), GeoMean (% CVb), read-out: Cmax
  Cmax: 82.8 ng/mL
[1]; human, plasma, po, 7.5 mg, single 7.5 mg oral dose, fasted, moderate hepatic impairment (n = 8), Mean ± SD, read-out: t1/2 (converted)
  half-life: 36.3 ± 11.9 h
[1]; human, plasma, po, 7.5 mg, single 7.5 mg oral dose, fasted, moderate hepatic impairment (n = 8), Median (Min-Max), read-out: Tmax
  Tmax: 2 h
[1]; human, plasma, po, 7.5 mg, single 7.5 mg oral dose, fasted, normal liver function group (n = 8), GeoMean (% CVb), read-out: AUC0-t
  AUC(0-t): 874 ng·h/mL
[1]; human, plasma, po, 7.5 mg, single 7.5 mg oral dose, fasted, normal liver function group (n = 8), GeoMean (% CVb), read-out: AUC0-∞
  AUC(0-inf): 929 ng·h/mL
[1]; human, plasma, po, 7.5 mg, single 7.5 mg oral dose, fasted, normal liver function group (n = 8), GeoMean (% CVb), read-out: Cmax
  Cmax: 36.8 ng/mL
[1]; human, plasma, po, 7.5 mg, single 7.5 mg oral dose, fasted, normal liver function group (n = 8), Mean ± SD, read-out: t1/2 (converted)
  half-life: 34.6 ± 11.9 h
[1]; human, plasma, po, 7.5 mg, single 7.5 mg oral dose, fasted, normal liver function group (n = 8), Median (Min-Max), read-out: Tmax
  Tmax: 8 h
[1]; [6]
  AUC0-t increase: 21.73%
  AUC0-∞ increase: 20.16%
  Cmax increase: 70.39%
[1]; [7]
  AUC0-t increase: 71.21%
  AUC0-∞ increase: 73.06%
  Cmax increase: 104.72%
[1]; normal, mild and moderate hepatic impairment groups
  half-lives compared between groups: substantially identical half-lives
[1]; [8]
  CL/F: 6.72(41.5) L/h
  Cmax: 62.6(42.2) ng/mL
  V/F: 304(45.6) L
[1]; [9]
  CL/F: 4.66(58.8) L/h
  V/F: 233(69.7) L
[1]; [10]
  CL/F: 8.07(101.6) L/h
  V/F: 372(60.3) L
[2]
  effect of hepatic impairments on plasma protein binding rate: did not significantly affect
[3]
  platelet counts after administration compared to the baseline: trend towards higher platelet counts compared to the baseline
[4]; all 24 subjects, 13 subjects, 25 events
  incidence of AEs related to the study drug: 54.2%
[4]; all 24 subjects, 15 subjects, 29 events
  incidence of adverse events: 62.5%
[4]; all subjects, nine subjects
  subjects with grade 1 drug-related AEs (CTCAE5.0): 37.5%
[4]; all subjects, seven subjects
  subjects with grade 2 drug-related AEs (CTCAE5.0): 29.2%
[4]; mild hepatic impairment group, 1 subject, decreased neutrophil count
  subjects with grade 2 drug-related AEs (CTCAE5.0): 12.5%
[4]; mild hepatic impairment group, 3 subjects
  subjects with grade 1 drug-related AEs (CTCAE5.0): 37.5%
[4]; mild hepatic impairment group, 4 subjects, 5 events
  incidence of AEs related to the study drug: 50.0%
[4]; moderate hepatic impairment group, 1 subject
  subjects with grade 3 drug-related AEs (CTCAE5.0): 12.5%
[4]; [11]
  subjects with grade 1 drug-related AEs (CTCAE5.0): 62.5%
  subjects with grade 2 drug-related AEs (CTCAE5.0): 62.5%
[4]; moderate hepatic impairment group, 7 subjects, 18 events
  incidence of AEs related to the study drug: 87.5%
[4]; normal liver function group, 1 subject
  subjects with grade 1 drug-related AEs (CTCAE5.0): 25.0%
[4]; normal liver function group, 1 subject, hypertriglyceridemia
  subjects with grade 2 drug-related AEs (CTCAE5.0): 12.5%
[4]; normal liver function group, 2 subjects, 2 events
  incidence of AEs related to the study drug: 25.0%
[4]; single oral dose, normal liver function, mild and moderate hepatic impairments
  safety and tolerability: safe and well tolerated
